Laboratory results from US5462869A, “Human endothelin converting enzyme isolated from blood or placenta by hydrated density” (Nisshin Flour Milling Co., Ltd., priority 1991, dated 1995).
One block for each molecule: values may come before it. Square brackets hold non-standard residues; d marks the D form. Peptide text beside a SMILES is read from it. * marks the point of attachment. Sta = CC(C)C[C@H](N)[C@@H](O)CC(=O)O; Isovaleryl = CC(C)CC(=O)*

How the values were obtained:
Assay type in all cases: biochemical, human
Conditions in all cases: 37° C. 30 minutes, pH 7.0, untreated enzyme as 100
[1] = system: endothelin converting enzyme II; assay: Effect of inhibitors on activity of converting big endothelin-1 to endothelin-1, enzyme II
Experimental: (§1) 10 μl of a 100 nmol/ml big endothelin-1 solution is added to 1 ml of an enzyme solution (10 mM trishydrochloric acid-0.15M sodium chloride buffer; pH 7.0), and the enzymatic reaction is carried out at 37° C. for 3 hours. After completion of the reaction, 10 μl of a 0.1M EDTA solution is added thereto to discontinue the reaction. Thereafter, the resultant endothelin-1 is assayed according to the sandwich-EIA method. An enzymatic activity of converting 1 pmol of big endothelin-1 to endothelin-1 per hour under the above-described reaction conditions is termed 1 U (unit).
(§2) A sample and a predetermined concentration of endothelin standard solution are respectively applied to a 96-hole microplate on which ani-endothelin monoclonal antibody is immobilized to thereby cause the […]. […] Then, biotin-labeled anti-endothelin polyclonal antibody and peroxydase-labeled avidin are applied thereto for reaction. After washing the microplate, activity of bound peroxydase is assayed. Endothelin concentration in the sample is assayed based on the calibration curve drawn by using endothelin standard solutions having predetermined concentrations of endothelin.
(§3) The enzymes of the invention were tested for the effects of various inhibitors against the activity of converting big endothelin-1 to endothelin-1.
(§4) Each of the enzymes is incubated in 100 μl of a reaction solution (10 mM tris-hydrochloric acid-0.15M sodium chloride buffer; pH 7.0) containing various inhibitors at 37° C. for 30 minutes, and the residual enzymatic activity is measured in the above-described manner.

[2] = system: endothelin converting enzyme III; assay: Effect of inhibitors on activity of converting big endothelin-1 to endothelin-1, enzyme III
Experimental: as §1, §2, §3, §4

[3] = system: endothelin converting enzyme IV; assay: Effect of inhibitors on activity of converting big endothelin-1 to endothelin-1, enzyme IV
Experimental: as §1, §2, §3, §4

[4] = system: endothelin converting enzyme I; assay: Effect of inhibitors on activity of converting big endothelin-1 to endothelin-1, enzyme I
Experimental: as §1, §2, §3, §4

- Relative Activity (%) ([1]; inhibitor 0.5 mM): 5%
- Relative Activity (%) ([2]; inhibitor 0.5 mM): 7%
- Relative Activity (%) ([3]; inhibitor 0.5 mM): 8%
- Relative Activity (%) ([4]; inhibitor 0.5 mM): 10%
SMILES: c1cnc2c(c1)ccc1cccnc12 [1,10-Phenanthroline]

- Relative Activity (%) ([1]; inhibitor 0.01 mM): 100%
- Relative Activity (%) ([2]; inhibitor 0.01 mM): 99%
- Relative Activity (%) ([3]; inhibitor 0.01 mM): 97%
- Relative Activity (%) ([4]; inhibitor 0.01 mM): 99%
SMILES: CC(C)CC(=O)N[C@H](C(=O)N[C@H](C(=O)N[C@@H](CC(C)C)[C@@H](O)CC(=O)N[C@@H](C)C(=O)N[C@@H](CC(C)C)[C@@H](O)CC(=O)O)C(C)C)C(C)C [Pepstatin A] (Isovaleryl-VV[Sta]A[Sta]-OH)

- Relative Activity (%) ([1]; inhibitor 0.1 mM): 2%
- Relative Activity (%) ([2]; inhibitor 0.1 mM): 1%
- Relative Activity (%) ([3]; inhibitor 0.1 mM): 3%
- Relative Activity (%) ([4]; inhibitor 0.1 mM): 1%
SMILES: CC(C)C[C@H](NP(=O)(O)O[C@@H]1O[C@@H](C)[C@H](O)[C@@H](O)[C@H]1O)C(=O)N[C@@H](Cc1c[nH]c2ccccc12)C(=O)O [Phosphoramidon]
